Target: T1, human NaV1.3 (Homo sapiens, UniProt Q9NY46)
T1 construct: expressed in transfected cells; host or cells: HEK293
Experiment: FRET assay (EFS, FDSS) on HEK293 cells expressing human NaV1.3 channels
Format: cell-based
Conditions: FRET assay, HEK293 cells expressing human NaV1.3; read-out: IC50 against Nav1.3
Procedure: This screen was used to determine the effects of compounds on human NaV1.3, human Nav1.7, and human Nav1.5 channels, utilising electrical field stimulation (EFS) system in 96-well plate format on FDSS (Hamamatsu Photonics) platform. The change of membrane potential was monitored with FRET dye pair, oxonol (DiSBAC2(3)) and coumarin (CC2-DMPE).
Each HEK293 cells expressing human NaV1.3 channels and HEK293 cells expressing human NaV1.5 channels were grown in T225 flasks, in a 5% CO2 humidified incubator to about 80% confluence. Media composition consisted of Dulbecco's Modified Eagle Medium (high glucose), 10% FCS, 100 units/ml Penicillin, 100 microgram/ml Streptomycin and 500 microgram/ml Geneticine.
Protocol: • Seeded each cell lines (1×10^5 cells/well) into poly-D-lysine coated 96-well plates prior to experimentation. • Incubated at 37° C. in 5% CO2 for 24 hours. • Washed each well with assay buffer (140 mM NaCl, 4.5 mM KCl, 10 mM D-Glucose, 2 mM CaCl2, 1 mM MgCl2, 10 mM HEPES, pH 7.4 adjusted with NaOH) twice. • Added 1st loading solution containing 10 microM CC2-DMPE and 0.06% Pluronic F-127 in assay buffer. • Incubated the plate at room temperature in dark for 1 hour. • Removed 1st loading solution and added 2nd loading solution containing 15 microM DiSBAC2(3), 0.555 mM VABSC-1 and 0.004% Pluronic F-127 in assay buffer. • Placed the plate under the dark at room temperature for 25 minutes. • Added compound solutions into the assay plate. • Set the assay plate in FDSS and placed an EFS device on the plate. • Measured EFS-induced fluorescent response by FDSS.
The data were analyzed and reported as normalized ratios of intensities measured at […]. The process of calculating these ratios was performed as follows:
[formula] This analysis was performed using a computerized specific program designed for FDSS generated data. Fluorescence ratio values were plotted using XLfit to determine an IC50 value for each compound.

T1 sequence (Q9NY46 whole entry): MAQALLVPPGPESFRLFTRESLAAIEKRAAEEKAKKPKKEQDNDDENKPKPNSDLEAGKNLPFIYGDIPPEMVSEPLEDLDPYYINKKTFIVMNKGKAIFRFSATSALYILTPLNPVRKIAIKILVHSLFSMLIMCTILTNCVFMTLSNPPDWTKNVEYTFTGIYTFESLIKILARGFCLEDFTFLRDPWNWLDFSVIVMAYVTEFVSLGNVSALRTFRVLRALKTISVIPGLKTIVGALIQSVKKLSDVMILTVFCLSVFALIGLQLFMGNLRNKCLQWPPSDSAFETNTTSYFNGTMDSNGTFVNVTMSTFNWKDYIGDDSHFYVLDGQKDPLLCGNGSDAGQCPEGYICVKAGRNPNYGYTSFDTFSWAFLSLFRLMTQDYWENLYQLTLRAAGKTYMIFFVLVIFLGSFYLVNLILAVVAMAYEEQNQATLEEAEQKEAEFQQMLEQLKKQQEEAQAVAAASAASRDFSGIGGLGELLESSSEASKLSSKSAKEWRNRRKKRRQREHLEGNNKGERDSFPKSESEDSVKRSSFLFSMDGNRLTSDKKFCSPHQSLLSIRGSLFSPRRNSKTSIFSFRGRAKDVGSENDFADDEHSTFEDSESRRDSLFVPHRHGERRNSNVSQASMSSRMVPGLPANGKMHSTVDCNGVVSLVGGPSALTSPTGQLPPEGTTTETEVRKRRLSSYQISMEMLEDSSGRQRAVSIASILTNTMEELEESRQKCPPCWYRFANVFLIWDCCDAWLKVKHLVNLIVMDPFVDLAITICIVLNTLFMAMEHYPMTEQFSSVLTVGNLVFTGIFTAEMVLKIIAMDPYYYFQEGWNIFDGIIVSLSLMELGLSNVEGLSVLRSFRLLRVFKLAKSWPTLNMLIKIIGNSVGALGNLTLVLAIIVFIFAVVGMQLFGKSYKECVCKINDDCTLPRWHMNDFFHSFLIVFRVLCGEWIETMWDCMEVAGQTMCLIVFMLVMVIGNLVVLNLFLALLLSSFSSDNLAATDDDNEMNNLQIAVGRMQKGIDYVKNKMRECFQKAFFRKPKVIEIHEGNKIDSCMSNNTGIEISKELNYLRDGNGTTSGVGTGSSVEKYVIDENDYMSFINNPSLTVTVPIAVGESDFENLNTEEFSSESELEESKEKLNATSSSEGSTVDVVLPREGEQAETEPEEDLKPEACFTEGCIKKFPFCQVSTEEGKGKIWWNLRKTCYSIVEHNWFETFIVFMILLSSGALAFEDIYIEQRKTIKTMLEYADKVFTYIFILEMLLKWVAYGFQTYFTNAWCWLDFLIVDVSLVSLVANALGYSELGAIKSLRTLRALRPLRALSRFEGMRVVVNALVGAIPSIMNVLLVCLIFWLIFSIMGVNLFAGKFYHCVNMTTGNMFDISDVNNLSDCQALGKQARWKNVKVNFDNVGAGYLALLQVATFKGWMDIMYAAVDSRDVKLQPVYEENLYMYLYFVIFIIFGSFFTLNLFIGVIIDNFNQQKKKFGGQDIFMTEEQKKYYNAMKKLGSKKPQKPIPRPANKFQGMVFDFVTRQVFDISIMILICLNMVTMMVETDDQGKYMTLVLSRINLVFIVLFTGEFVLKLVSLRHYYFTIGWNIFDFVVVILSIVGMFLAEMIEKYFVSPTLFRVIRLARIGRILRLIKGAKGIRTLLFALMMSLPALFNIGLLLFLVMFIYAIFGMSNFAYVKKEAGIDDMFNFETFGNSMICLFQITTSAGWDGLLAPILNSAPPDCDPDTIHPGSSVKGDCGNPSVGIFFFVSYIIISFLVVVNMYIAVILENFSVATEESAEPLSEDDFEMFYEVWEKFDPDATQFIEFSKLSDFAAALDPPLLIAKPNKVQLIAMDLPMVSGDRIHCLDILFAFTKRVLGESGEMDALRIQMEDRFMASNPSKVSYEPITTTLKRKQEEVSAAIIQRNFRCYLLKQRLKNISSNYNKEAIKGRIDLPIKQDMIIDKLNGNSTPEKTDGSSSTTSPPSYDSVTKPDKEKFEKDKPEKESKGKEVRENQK

IC50, < 3 µM:
O=C(Cc1noc2ccccc12)N1CCN(c2cc(OCC(F)(F)F)ncn2)CC1 [Example 107, 2-(benzo[d]isoxazol-3-yl)-1-(4-(6-(2,2,2-trifluoroethoxy)pyrimidin-4-yl)piperazin-1-yl)ethanone]
O=C(Cc1noc2ccccc12)N1CCN(c2cc(OC3CCC3)ncn2)CC1 [Example 111, 2-(benzo[d]isoxazol-3-yl)-1-(4-(6-cyclobutoxypyrimidin-4-yl)piperazin-1-yl)ethanone]
CC(C)COc1cc(N2CCN(C(=O)Cc3ccc(F)cc3)CC2)ncn1 [Example 119, 2-(4-fluorophenyl)-1-(4-(6-isobutoxypyrimidin-4-yl)piperazin-1-yl)ethanone]
CC(C)COc1cc(N2CCN(C(=O)CS(=O)(=O)c3ccc(Cl)cc3)CC2)ncn1 [Example 121, 2-((4-chlorophenyl)sulfonyl)-1-(4-(6-isobutoxypyrimidin-4-yl)piperazin-1-yl)ethanone]
CC(C)COc1cc(N2CCN(C(=O)COc3ccc4cccnc4c3)CC2)ncn1 [Example 127, 1-(4-(6-isobutoxypyrimidin-4-yl)piperazin-1-yl)-2-(quinolin-7-yloxy)ethanone]
CC(C)COc1cc(N2CCN(C(=O)COc3cccc4ccncc34)CC2)ncn1 [Example 128, 1-(4-(6-isobutoxypyrimidin-4-yl)piperazin-1-yl)-2-(isoquinolin-8-yloxy)ethanone]
CC(C)COc1cc(N2CCN(C(=O)c3cc(-c4ccccc4)nn3C)CC2)ncn1 [Example 134, (4-(6-isobutoxpyrimidin-4-yl)piperazin-1-yl)(1-methyl-3-phenyl-1H-pyrazol-5-yl)methanone]
Cc1c(C(=O)N2CCN(c3cc(OCC(C)C)ncn3)CC2)cnn1-c1ccccc1 [Example 135]
Cc1c(C(=O)N2CCN(c3cc(OCC(C)C)ncn3)CC2)nnn1-c1ccccc1 [Example 136, (4-(6-isobutoxpyrimidin-4-yl)piperazin-1-yl)(5-methyl-1-phenyl-1H-1,2,3-triazol-4-yl)methanone]
O=C(CCOc1ccc(F)cc1)N1CCN(c2cc(OC3CCC3)ncn2)CC1 [Example 140, 1-(4-(6-cylcobutoxypyrimidin-4-yl)piperazin-1-yl)-3-(4-fluorophenoxy)propan-1-one]
CC(C)COc1cc(N2CCN(C(=O)COc3cncc(Cl)c3)CC2)ncn1 [Example 144, 2-((5-chloropyridin-3-yl)oxy)-1-(4-(6-isobutoxypyrimidin-4-yl)piperazin-1-yl)ethanone]
Cc1c(C(=O)N2CCN(c3cc(OCC(F)(F)F)ncn3)CC2)cnn1-c1ccccc1 [Example 148, (5-methyl-1-phenyl-1H-pyrazol-4-yl)(4-(6-(2,2,2-trifluoroethoxy)pyrimidin-4-yl)piperazin-1-yl)methanone]
CC(C)COc1cc(N2CCN(C(=O)[C@@H](C)Oc3ccc(F)cc3)CC2)ncn1 [Example 152, (R)-2-(4-fluorophenoxy)-1-(4-(6-isobutoxypyrimidin-4-yl)piperazin-1-yl)propan-1-one]
O=C(COc1cccc(F)c1)N1CCN(c2cc(OCC(F)(F)F)ncn2)CC1 [Example 155, 2-(3-fluorophenoxy)-1-(4-(6-(2,2,2-trifluoroethoxy)pyrimidin-4-yl)piperazin-1-yl)ethanone]
O=C(CN1CCc2ccccc2C1=O)N1CCN(c2cc(OCC(F)(F)F)ncn2)CC1 [Example 157, 2-(2-oxo-2-(4-(6-(2,2,2-trifluoroethoxy)pyrimidin-4-yl)piperazin-1-yl)ethyl)-3,4-dihydroisoquinolin-1(2H)-one]
CC(C)Oc1cc(N2CCN(C(=O)c3cc(-c4ccccc4)nn3C)CC2)ncn1 [Example 164, (4-(6-isopropoxypyrimidin-4-yl)piperazin-1-yl)(1-methyl-3-phenyl-1H-pyrazol-5-yl)methanone]
CC(C)COc1cc(N2CCN(C(=O)c3cnn(Cc4ccccc4)c3)CC2)ncn1 [Example 171, (1-benzyl-1H-pyrazol-4-yl)(4-(6-isobutoxypyrimidin-4-yl)piperazin-1-yl)methanone]
Cc1nn(-c2ccccc2)nc1C(=O)N1CCN(c2cc(OCC(C)C)ncn2)CC1 [Example 182, (4-(6-isobutoxypyrimidin-4-yl)piperazin-1-yl)(5-methyl-2-phenyl-2H-1,2,3-triazol-4-yl)methanone]
COc1ccccc1-n1cc(C(=O)N2CCN(c3cc(OCC(C)C)ncn3)CC2)cn1 [Example 183, (4-(6-isobutoxypyrimidin-4-yl)piperazin-1-yl)(1-(2-methoxyphenyl)-1H-pyrazol-4-yl)methanone]
CC(C)COc1cc(N2CCN(C(=O)c3cnn(-c4ccccc4)c3N)CC2)ncn1 [Example 184, (5-amino-1-phenyl-1H-pyrazol-4-yl)(4-(6-isobutoxypyrimidin-4-yl)piperazin-1-yl)methanone]
CC(C)COc1cc(N2CCN(C(=O)c3cc(-c4ccccc4)ncn3)CC2)ncn1 [Example 185, (4-(6-isobutoxypyrimidin-4-yl)piperazin-1-yl)(6-phenylpyrimidin-4-yl)methanone]
CC(C)COc1cc(N2CCN(C(=O)c3cc(-c4cccnc4)nn3C)CC2)ncn1 [Example 189, (4-(6-isobutoxypyrimidin-4-yl)piperazin-1-yl)(1-methyl-3-(pyridin-3-yl)-1H-pyrazol-5-yl)methanone]
CC(C)COc1cc(N2CCN(C(=O)c3csc(-c4cccnc4)n3)CC2)ncn1 [Example 190, (4-(6-isobutoxypyrimidin-4-yl)piperazin-1-yl)(2-(pyridin-3-yl)thiazol-4-yl)methanone]
CC(C)COc1cc(N2CCN(C(=O)c3csc(-c4ccccn4)n3)CC2)ncn1 [Example 191, (4-(6-isobutoxypyrimidin-4-yl)piperazin-1-yl)(2-(pyridin-2-yl)thiazol-4-yl)methanone]
CC(C)Oc1cc(N2CCN(C(=O)c3csc(-c4ccccn4)n3)CC2)ncn1 [Example 193, (4-(6-isopropoxypyrimidin-4-yl)piperazin-1-yl)(2-(pyridin-2-yl)thiazol-4-yl)methanone]
Cc1c(C(=O)N2CCN(c3cc(OCC(C)C)ncn3)CC2)nnn1-c1ccc(F)cc1 [Example 202, (1-(4-fluorophenyl)-5-methyl-1H-1,2,3-triazol-4-yl)(4-(6-isobutoxypyrimidin-4-yl)piperazin-1-yl)methanone]
Cc1c(C(=O)N2CCN(c3cc(OC(C)C)ncn3)CC2)nnn1-c1ccc(F)cc1 [Example 203, (1-(4-fluorophenyl)-5-methyl-1H-1,2,3-triazol-4-yl)(4-(6-isopropoxypyrimidin-4-yl)piperazin-1-yl)methanone]
Cc1c(C(=O)N2CCN(c3cc(OC4CCC4)ncn3)CC2)nnn1-c1ccc(F)cc1 [Example 204, (4-(6-cyclobutoxypyrimidin-4-yl)piperazin-1-yl)(1-(4-fluorophenyl)-5-methyl-1H-1,2,3-triazol-4-yl)methanone]
Cc1c(C(=O)N2CCN(c3cc(OCC(F)(F)F)ncn3)CC2)nnn1-c1ccc(F)cc1 [Example 205, (1-(4-fluorophenyl)-5-methyl-1H-1,2,3-triazol-4-yl)(4-(6-(2,2,2-trifluoroethoxy)pyrimidin-4-yl)piperazin-1-yl)methanone]
CC(C)COc1cc(N2CCN(C(=O)c3cn(-c4ccccc4)nn3)CC2)ncn1 [Example 206, (4-(6-isobutoxypyrimidin-4-yl)piperazin-1-yl)(1-phenhyl-1H-1,2,3-triazol-4-yl)methanone]
CC(C)COc1cc(N2CCN(C(=O)c3nn(C)c4ccc(F)cc34)CC2)ncn1 [Example 209, (5-fluoro-1-methyl-1H-indazol-3-yl)(4-(6-isobutoxypyrimidin-4-yl)piperazin-1-yl)methanone]
CC(C)Oc1cc(N2CCN(C(=O)c3nn(C)c4ccc(F)cc34)CC2)ncn1 [Example 210, (5-fluoro-1-methyl-1H-indazol-3-yl)(4-(6-isopropoxypyrimidin-4-yl)piperazin-1-yl)methanone]

Reference: patent US8999974B2, “Acyl piperazine derivatives as TTX-S blockers” (Raqualia Pharma Inc., priority 2010, dated 2015)
